Experimental data taken from publication PMC7912279, “Preclinical Evaluation of ^99mTc-Labeled GRPR Antagonists maSSS/SES-PEG2-RM26 for Imaging of Prostate Cancer” (Pharmaceutics, 2021).

Columns and labels:
[1] = Metabolite analysis of urine and caecum content by radio-HPLC; type: in vivo; conditions: NMRI mice, 40 pmol, 3 h pi, two mice
Protocol: Metabolite Analysis: The NMRI mice were injected with 40 pmol of [^99mTc]Tc-maSSS-PEG2-RM26 (3 MBq) or [^99mTc]Tc-maSES-PEG2-RM26 (5.8 MBq). The mice were euthanized by CO2 inhalation 3 h pi, the content of the caecum and urine were collected and analyzed using HPLC as previously described. Centrifugation was performed using Centrifuge 5430 R (Eppendorf, Hamburg, Germany).

[2] = Biodistribution in NMRI mice for dosimetry estimation; type: in vivo; conditions: 40 pmol (30–500 kBq)
Protocol: Dosimetry estimation: To estimate the organs’ absorbed doses after iv injection of [^99mTc]Tc-maSSS-PEG2-RM26, NMRI mice were injected with 40 pmol (30–500 kBq) of the radiolabeled peptide and biodistribution was evaluated 0.5, 1, 3, 6, and 24 h pi. Sample collection and activity measurements were done as described above. To evaluate dosimetry in humans, uptake values in mice were upscaled using the well-established “percent kg/g method” [37] (Equation (1)):(%IA/organ)human = [(%IA/g)animal × (kg TBweight)animal × (g organ/(kg TBweight)human](1) where %IA-% injected activity.

PC-3 xenografts = assay: Biodistribution in tumor bearing mice; type: in vivo; conditions: BALB/c nu/nu mice bearing PC-3 xenografts; for uptake, Blood / uptake, Bone / uptake, GI (gastrointestinal tract with content) / uptake, Intestine / uptake, Kidneys / uptake, Liver / uptake, Lung / uptake, Muscle / uptake, Pancreas / uptake, Spleen / uptake, Stomach / uptake, Tumor: 40 pmol (30 kBq), gamma counter, 4-7 mice; for Tumor-to-non-tumor ratio, Blood / Tumor-to-non-tumor ratio, Bone / Tumor-to-non-tumor ratio, Intestine / Tumor-to-non-tumor ratio, Kidneys / Tumor-to-non-tumor ratio, Liver / Tumor-to-non-tumor ratio, Lung / Tumor-to-non-tumor ratio, Muscle / Tumor-to-non-tumor ratio, Pancreas / Tumor-to-non-tumor ratio, Spleen / Tumor-to-non-tumor ratio, Stomach: 40 pmol
Protocol: Animals: All in vivo experiments were carried out on BALB/c nu/nu or NMRI mice provided by Scanbur A/S (Sollentuna, Sweden). All animal studies were approved by the Ethics Committee for Animal Research in Uppsala (Sweden), following the national legislation on the protection of laboratory animals (project identification code of approval 5/16, 26 February 2016). Prostate cancer xenografts expressing GRPR were established in BALB/c nu/nu mice by subcutaneous injection of PC-3 cell suspension in PBS (7 × 10^6 cells in 100 µL) four weeks before the experiment. Four to seven mice per data point were used in in vivo experiments, two mice per data point were used in metabolic analysis and SPECT/CT imaging experiments.
Biodistribution in tumor bearing mice: The comparison of biodistribution between the two radiolabeled peptides was evaluated in BALB/c nu/nu mice bearing PC-3 xenografts. Each mouse was injected with 40 pmol (30 kBq, mass of injected peptide was adjusted with unlabeled peptide) of either [^99mTc]Tc-maSSS-PEG2-RM26 or [^99mTc]Tc-maSES-PEG2-RM26. The mice were euthanized 3 h pi. Sample collection and activity measurements were done as described above. The biodistribution of [^99mTc]Tc-maSSS-PEG2-RM26 was further studied at 6 h pi following the same protocol. Additionally for [^99mTc]Tc-maSSS-PEG2-RM26, one group of xenograft bearing mice was injected with 40 pmol (30 kBq, mass of injected peptide was adjusted with unlabeled peptide) of labeled peptide with 5 nmol of unlabeled peptide and euthanized 3 h pi.

[3] = Octanol-water distribution coefficient (logD); type: physicochemical; conditions: determined as previously described [35]
Protocol: To test the stability, the radiolabeled peptides were incubated with 300× molar excess of cysteine or with PBS at room temperature for 1 h. The octanol-water distribution coefficient (logD) was determined as previously described.

SMILES: CC(C)C[C@H](NC(=O)C[C@H](O)[C@H](CC(C)C)NC(=O)[C@H](Cc1c[nH]cn1)NC(=O)CNC(=O)[C@@H](NC(=O)[C@H](C)NC(=O)[C@H](Cc1c[nH]c2ccccc12)NC(=O)[C@H](CCC(N)=O)NC(=O)[C@@H](Cc1ccccc1)NC(=O)COCCOCCNC(=O)[C@H](CO)NC(=O)[C@H](CO)NC(=O)[C@H](CO)NC(=O)CS)C(C)C)C(N)=O [[^99mTc]Tc-maSSS-PEG2-RM26, metal not drawn]
- intact radiolabeled peptide in urine and gastrointestinal (caecum) content [1]: no intact radiolabeled peptide
- uptake, Blood ([2]; 0.5 h pi): 0.7 ± 0.1 % IA/g
- uptake, Body ([2]; 0.5 h pi): 4.5 ± 0.9 %IA/sample
- uptake, Bone ([2]; 0.5 h pi): 0.26 ± 0.09 % IA/g
- uptake, Brain ([2]; 0.5 h pi): 0.031 ± 0.008 % IA/g
- uptake, Caecum ([2]; 0.5 h pi): 0.34 ± 0.09 %IA/sample
- uptake, Heart ([2]; 0.5 h pi): 0.27 ± 0.10 % IA/g
- uptake, Kidneys ([2]; 0.5 h pi): 2.5 ± 0.6 % IA/g
- uptake, Liver ([2]; 0.5 h pi): 4 ± 1 % IA/g
- uptake, Lung ([2]; 0.5 h pi): 0.7 ± 0.3 % IA/g
- uptake, Muscle ([2]; 0.5 h pi): 0.13 ± 0.03 % IA/g
- uptake, Pancreas ([2]; 0.5 h pi): 7 ± 2 % IA/g
- uptake, Small intestine ([2]; 0.5 h pi): 10 ± 2 %IA/sample
- uptake, Spleen ([2]; 0.5 h pi): 1.1 ± 0.4 % IA/g
- uptake, Stomach ([2]; 0.5 h pi): 2.2 ± 0.2 %IA/sample
- uptake, Upper large intestine ([2]; 0.5 h pi): 0.4 ± 0.3 %IA/sample
- uptake, Body ([2]; 1 h pi): 6 ± 1 %IA/sample
- uptake, Bone ([2]; 1 h pi): 0.2 ± 0.1 % IA/g
- uptake, Brain ([2]; 1 h pi): 0.04 ± 0.02 % IA/g
- uptake, Caecum ([2]; 1 h pi): 0.9 ± 0.2 %IA/sample
- uptake, Heart ([2]; 1 h pi): 0.23 ± 0.03 % IA/g
- uptake, Kidneys ([2]; 1 h pi): 4 ± 1 % IA/g
- uptake, Large intestine ([2]; 1 h pi): 0.6 ± 0.1 %IA/sample
- uptake, Liver ([2]; 1 h pi): 6 ± 1 % IA/g
- uptake, Lung ([2]; 1 h pi): 0.9 ± 0.4 % IA/g
- uptake, Pancreas ([2]; 1 h pi): 13 ± 6 % IA/g
- uptake, Small intestine ([2]; 1 h pi): 44 ± 10 %IA/sample
- uptake, Spleen ([2]; 1 h pi): 2.4 ± 1.6 % IA/g
- uptake, Stomach ([2]; 1 h pi): 6 ± 2 %IA/sample
- uptake, Blood ([2]; 3 h pi): 0.38 ± 0.06 % IA/g
- uptake, Body ([2]; 3 h pi): 4 ± 2 %IA/sample
- uptake, Bone ([2]; 3 h pi): 0.27 ± 0.04 % IA/g
- uptake, Brain ([2]; 3 h pi): 0.03 ± 0.01 % IA/g
- uptake, Caecum ([2]; 3 h pi): 16 ± 4 %IA/sample
- uptake, Heart ([2]; 3 h pi): 0.12 ± 0.01 % IA/g
- uptake, Kidneys ([2]; 3 h pi): 1.5 ± 0.3 % IA/g
- uptake, Large intestine ([2]; 3 h pi): 3.3 ± 3.5 %IA/sample
- uptake, Liver ([2]; 3 h pi): 2.5 ± 0.4 % IA/g
- uptake, Lung ([2]; 3 h pi): 0.44 ± 0.07 % IA/g
- uptake, Muscle ([2]; 3 h pi): 0.061 ± 0.006 % IA/g
- uptake, Pancreas ([2]; 3 h pi): 3.2 ± 0.7 % IA/g
- uptake, Small intestine ([2]; 3 h pi): 9 ± 3 %IA/sample
- uptake, Spleen ([2]; 3 h pi): 2 ± 1 % IA/g
- uptake, Stomach ([2]; 3 h pi): 5 ± 1 %IA/sample
- uptake, Upper large intestine ([2]; 3 h pi): 5.2 ± 5.1 %IA/sample
- uptake, Blood ([2]; 6 h pi): 0.30 ± 0.07 % IA/g
- uptake, Body ([2]; 6 h pi): 2.8 ± 0.2 %IA/sample
- uptake, Bone ([2]; 6 h pi): 0.18 ± 0.03 % IA/g
- uptake, Brain ([2]; 6 h pi): 0.03 ± 0.01 % IA/g
- uptake, Caecum ([2]; 6 h pi): 18 ± 3 %IA/sample
- uptake, Heart ([2]; 6 h pi): 0.17 ± 0.08 % IA/g
- uptake, Kidneys ([2]; 6 h pi): 1.3 ± 0.3 % IA/g
- uptake, Large intestine ([2]; 6 h pi): 30 ± 13 %IA/sample
- uptake, Liver ([2]; 6 h pi): 1.1 ± 0.3 % IA/g
- uptake, Lung ([2]; 6 h pi): 0.3 ± 0.1 % IA/g
- uptake, Muscle ([2]; 6 h pi): 0.05 ± 0.03 % IA/g
- uptake, Small intestine ([2]; 6 h pi): 2.5 ±0.8 %IA/sample
- uptake, Spleen ([2]; 6 h pi): 0.6 ± 0.5 % IA/g
- uptake, Stomach ([2]; 6 h pi): 3.2 ±0.4 %IA/sample
- uptake, Upper large intestine ([2]; 6 h pi): 14 ± 1 %IA/sample
- uptake, Blood ([2]; 24 h pi): 0.030 ± 0.006 % IA/g
- uptake, Body ([2]; 24 h pi): 0.27 ± 0.05 %IA/sample
- uptake, Bone ([2]; 24 h pi): 0.04 ± 0.02 % IA/g
- uptake, Brain ([2]; 24 h pi): 0.006 ± 0.004 % IA/g
- uptake, Caecum ([2]; 24 h pi): 0.3 ± 0.2 %IA/sample
- uptake, Heart ([2]; 24 h pi): 0.021 ± 0.003 % IA/g
- uptake, Kidneys ([2]; 24 h pi): 0.46 ± 0.08 % IA/g
- uptake, Large intestine ([2]; 24 h pi): 0.05 ± 0.03 %IA/sample
- uptake, Liver ([2]; 24 h pi): 0.39 ± 0.05 % IA/g
- uptake, Lung ([2]; 24 h pi): 0.09 ± 0.04 % IA/g
- uptake, Muscle ([2]; 24 h pi): 0.006 ± 0.003 % IA/g
- uptake, Pancreas ([2]; 24 h pi): 0.10 ± 0.02 % IA/g
- uptake, Small intestine ([2]; 24 h pi): 0.10 ± 0.05 %IA/sample
- uptake, Spleen ([2]; 24 h pi): 0.37 ± 0.09 % IA/g
- uptake, Stomach ([2]; 24 h pi): 0.2 ± 0.1 %IA/sample
- uptake, Upper large intestine ([2]; 24 h pi): 0.05 ± 0.01 %IA/sample
- uptake, Blood (PC-3 xenografts; 3 h pi): 0.09 ± 0.04 % IA/g
- uptake, Bone (PC-3 xenografts; 3 h pi): 0.04 ± 0.02 % IA/g
- uptake, GI (gastrointestinal tract with content) (PC-3 xenografts; 3 h pi): 56 ± 3 % IA
- uptake, Intestine (PC-3 xenografts; 3 h pi): 3 ± 1 % IA/g
- uptake, Kidneys (PC-3 xenografts; 3 h pi): 0.7 ± 0.4 % IA/g
- uptake, Liver (PC-3 xenografts; 3 h pi): 3 ± 1 % IA/g
- uptake, Lung (PC-3 xenografts; 3 h pi): 0.12 ± 0.03 % IA/g
- uptake, Muscle (PC-3 xenografts; 3 h pi): 0.04 ± 0.02 % IA/g
- uptake, Pancreas (PC-3 xenografts; 3 h pi): 6.1 ± 0.8 % IA/g
- uptake, Spleen (PC-3 xenografts; 3 h pi): 0.12 ± 0.04 % IA/g
- uptake, Stomach (PC-3 xenografts; 3 h pi): 1.4 ± 0.3 % IA/g
- uptake, Tumor (PC-3 xenografts; 3 h pi): 7 ± 2 % IA/g
- uptake, Blood (PC-3 xenografts; 6 h pi): 0.056 ± 0.009 % IA/g
- uptake, Bone (PC-3 xenografts; 6 h pi): 0.02 ± 0.02 % IA/g
- uptake, GI (gastrointestinal tract with content) (PC-3 xenografts; 6 h pi): 26 ± 6 % IA
- uptake, Intestine (PC-3 xenografts; 6 h pi): 0.4 ± 0.2 % IA/g
- uptake, Kidneys (PC-3 xenografts; 6 h pi): 0.59 ± 0.06 % IA/g
- uptake, Liver (PC-3 xenografts; 6 h pi): 0.68 ± 0.08 % IA/g
- uptake, Lung (PC-3 xenografts; 6 h pi): 0.20 ± 0.10 % IA/g
- uptake, Muscle (PC-3 xenografts; 6 h pi): 0.012 ± 0.004 % IA/g
- uptake, Pancreas (PC-3 xenografts; 6 h pi): 0.98 ± 0.08 % IA/g
- uptake, Spleen (PC-3 xenografts; 6 h pi): 0.06 ± 0.01 % IA/g
- uptake, Stomach (PC-3 xenografts; 6 h pi): 0.9 ± 0.2 % IA/g
- uptake, Tumor (PC-3 xenografts; 6 h pi): 3 ± 1 % IA/g
- Tumor-to-non-tumor ratio, Blood (PC-3 xenografts; 3 h pi): 97 ± 56
- Tumor-to-non-tumor ratio, Bone (PC-3 xenografts; 3 h pi): 177 ± 79
- Tumor-to-non-tumor ratio, Intestine (PC-3 xenografts; 3 h pi): 3 ± 1
- Tumor-to-non-tumor ratio, Kidneys (PC-3 xenografts; 3 h pi): 14 ± 9
- Tumor-to-non-tumor ratio, Liver (PC-3 xenografts; 3 h pi): 3 ± 2
- Tumor-to-non-tumor ratio, Lung (PC-3 xenografts; 3 h pi): 65 ± 20
- Tumor-to-non-tumor ratio, Muscle (PC-3 xenografts; 3 h pi): 188 ± 32
- Tumor-to-non-tumor ratio, Pancreas (PC-3 xenografts; 3 h pi): 1.2 ± 0.4
- Tumor-to-non-tumor ratio, Spleen (PC-3 xenografts; 3 h pi): 62 ± 14
- Tumor-to-non-tumor ratio, Stomach (PC-3 xenografts; 3 h pi): 5 ± 2
- Tumor-to-non-tumor ratio, Blood (PC-3 xenografts; 6 h pi): 57 ± 22
- Tumor-to-non-tumor ratio, Bone (PC-3 xenografts; 6 h pi): 287 ± 232
- Tumor-to-non-tumor ratio, Intestine (PC-3 xenografts; 6 h pi): 9 ± 4
- Tumor-to-non-tumor ratio, Kidneys (PC-3 xenografts; 6 h pi): 5 ± 2
- Tumor-to-non-tumor ratio, Liver (PC-3 xenografts; 6 h pi): 5 ± 2
- Tumor-to-non-tumor ratio, Lung (PC-3 xenografts; 6 h pi): 18 ± 8
- Tumor-to-non-tumor ratio, Muscle (PC-3 xenografts; 6 h pi): 270 ± 67
- Tumor-to-non-tumor ratio, Pancreas (PC-3 xenografts; 6 h pi): 3 ± 1
- Tumor-to-non-tumor ratio, Spleen (PC-3 xenografts; 6 h pi): 50 ± 16
- Tumor-to-non-tumor ratio, Stomach (PC-3 xenografts; 6 h pi): 3 ± 1
- logD [3]: -0.6
